Test system: New Zealand White rabbits
Settings: rabbit, in vivo, sc
Experimental: 100 female New Zealand White rabbits were tested according to the study design detailed below (Table 2). The vehicle/adjuvant and test article were administered via intramuscular injection. […] The pumps were surgically implanted subcutaneously. The dose volume of the test article and vehicle was 0.5 ml/kg. The dose rate of the pumps was approximately 5 μl/hr.
The test article and vehicle/adjuvant formulations were administered to the study animals once at 30 days prior to gestation, once at 9 days prior to gestation, and once on day 12 of gestation.

Structure (SMILES): CN1CCCC1c1cccnc1 (stereo not drawn) [Nicotine]
- Mortality (female, New Zealand White): 3
- Number of Does: Abortion (female): 5
- Number of Does: Found dead/euthanized in extremis (female): 2
- Number of Does: No. Delivered (female): 11
- Number of Does: No. Survived Day 28 (female): 6
- Number of Does: No. whole litters dead (female): 4
- Number of Does: Not Pregnant (female): 2
- Number of Kits (Mean) LD 0-7 (female): 47.8
- Number of Kits (Mean) LD 7-14 (female): 100.0
- Number of Kits (Mean) LD 14-21 (female): 100.0
- Number of Kits (Mean) LD 21-28 (female): 100.0
- mean lactation index, representing kit survival from lactation day 0-7 (female): 47.8%
- mean number of kits born (female): 6.8 kits/liter
- gestation food consumption: significantly decreased
- maternal body weight: decrease in maternal body weight

Source: patent US7547712B2 (priority 2006, dated 2009)
